In data set [1] the test system is SW480 cells. The experiment in a line: Measurement of cellular uptake of compounds (HPLC of intermediate I). The class given is in vitro ADME. As to conditions: 10 μM.
The subject of data set [2] is colon cancer cells (SW480). Particulars: SW480 tumors in nude mice. How it is done:
The experiment was carried out using compound a in this example. Under sterile conditions, a suspension of colon cancer cells (SW480) in logarithmic growth phase (cell concentration was adjusted to 1×10^7/mL with physiological saline) was inoculated subcutaneously to 5 to 6 weeks old balb/c female nude mice on the right rear back, and each nude mice was inoculated at an amount of 0.3 ml, i.e. the number of cells contained was 3×10^6 per each mouse. 10 days later, subcutaneous transplanted tumor of 100-250 mm^3 appeared. The nude mice with tumor were randomly divided into several groups, each containing 6 mice: (1) control group; (2) doxorubicin group; (3) doxorubicin+amifostine; (4) doxorubicin+Celecoxib+intermediate II; (5) doxorubicin+intermediate I+intermediate II; (6) doxorubicin+low-dose compound a (6 mg/kg/day); (7) doxorubicin+high-dose compound a (15 mg/kg/day). Firstly, the following compounds were administered to each group of nude mice with tumor according to the following doses: intermediate I and intermediate II (3 mg/kg/day respectively), amifostine (400 mg/kg/day), Celecoxib (6 mg/kg/day). Except that amifostine was subcutaneously injected (30 minutes before irradiation), the other protective agents were administered by gavage. The above drugs were administered every day for 5 weeks continuously. 12 hours after the administration, doxorubicin (2.5 mg/kg) was injected intraperitoneally, and it was administered once every 2 days for 5 weeks. During the dosing period, the body weight of the nude mice was measured every two days with a precision electronic balance. The growth of the tumor and whether or not red and swelling and rupture occur were observed every day after inoculation. After tumor formation, the surface morphology and activity of the transplanted tumor were examined, and the longest diameter (a) and the shortest diameter (b) of the tumor nodules were measured every 3 days with a vernier caliper. […] 21 days after administration of doxorubicin, the tail vein blood of mice was collected to perform leukocyte count and blood biochemical index analysis. The tumor tissue and normal peripheral tissues were taken on the last day of treatment, and the content of the intermediate I therein was measured by HPLC (FIG. 9a). At the same time, paraffin sections were made, the occurrence of apoptosis was detected by terminal labeling (FIG. 9b), and the relative survival percentages of normal tissue and tumor tissue were calculated (the results are summarized in FIG. 9b).

The subject of data set [3] is gastric mucosa. The experiment in a line: Ulcer induction in rats after gavage (lesions of the gastric mucosa). The class given is in vivo.

The text below walks through data of patent US10494341B2, “Compound containing indoleacetic acid core structure and use thereof” (Beijing An Jian Xi Bio-Medical Technology Co., Ltd., priority 2015, dated 2019).

Structures are written as SMILES.

In the case of `COc1ccc2c(c1)c(CC(=O)O)c(C)n2C(=O)c1ccc(Cl)cc1` [intermediate I, reference compound], the “uptake by cells” value in data set [1] is “difficult to be efficiently taken up by the cells”. The “effect on tumor / on sensitivity of tumor to doxorubicin” value in data set [2] (doxorubicin 2.5 mg/kg i.p. every 2 days for 5 weeks, agents daily) is given as “can also enhance the sensitivity of the tumor to Doxorubicin”. The “death of animals during treatment” value in data set [2] (doxorubicin 2.5 mg/kg i.p., 6 mice per group) is “die of gastrointestinal bleeding”. For the same compound, the prevalence of ulcer is 0/6 in data set [3] (gavage three times, 10 μM); 2/6 in data set [3] (gavage three times, 30 μM); 6/6 in data set [3] (gavage three times, 90 μM). Further, the Ulcer index in data set [3] (gavage three times, Dose 90 μM/kg, 12 hours after last gavage) was 72.8 ± 6.82. The “ulcer at high concentration” value in data set [3] (gavage, high concentration (90 μM)) is recorded as “very serious ulcer”.
